Assay results: patent US10342866B2, “Compositions and methods for immunotherapies comprising small molecule integrin receptor-ligand agonist adjuvants” (7 Hills Interests LLC, priority 2015, dated 2019)

What was measured:
[1] = biological target: T1, αLβ2 (LFA-1) (Homo sapiens, UniProt P05107+P20701); experiment: Static cell adhesion assay, αLβ2-mediated adhesion to ICAM-1; type: cell-based; details: Jurkat (a4-) or HSB cells on sub-optimal ICAM-1 coating; PBS, 1 mM MgCl2, 50% FBS; read-out: Activity (EC50) in enhancing adhesion mediated by αLβ2 (LFA-1)
T1 construct: the cells expressed the appropriate integrin receptor either endogenously (Jurkat/α4β1, K562/α5β1, Jurkat (a4-)/αLβ2, HSB/αLβ2); endogenous in cells; host or cells: Jurkat (α4-) or HSB
Method: (§1) For all assays described, C4 was dissolved in DMSO to make a 1 mM stock solution, and dilutions were made in assay buffer or media to yield the desired final working concentrations in 1% DMSO (vehicle). Human VCAM-1, MAdCAM-1 Fc chimera, ICAM-1, and SDF-1α were purchased from R&D Systems (Minneapolis, Minn.). Human serum fibronectin was purchased from Sigma-Aldrich (St. Louis, Mo.). The cell lines NK-92, Jurkat, K562, and HSB were obtained from American Type Culture Collection (Manassas, Va.) and were maintained in recommended culture media. The mutant Jurkat cell line not expressing α4 integrin (Jurkat [a4-]) was a gift from Dr. David Rose, University of California San Diego, La Jolla, Calif.
(§2) Ligands (VCAM-1, MAdCAM-1, fibronectin, or ICAM-1) in 50 μL of 50 mM Tris-HCl (pH 7.4), 150 mM NaCl, (TBS) were added to wells of a 96-well plate and allowed to coat overnight at 4° C. In order to maximize the window to evaluate agonist activity, a sub-optimal coating concentration of ligand was used. This ligand concentration corresponded approximately to that which would yield ≤5% adhesion as determined by dose-response curves of ligand binding to the appropriate cell type. All assays were performed as previously described. Briefly, 2×10^6 cells were labeled for 30 minutes with calcein-AM (Molecular Probes), washed, resuspended in binding buffer, and added to ligand-coated plates (2×10^5 cells/well) that had been blocked with 2% BSA. The binding buffer was PBS with 1 mM MgCl2 and 50% FBS (VCAM-1 and ICAM-1 assays) or TBS with 1 mM MnCl2 and 50% FBS (MAdCAM-1 and fibronectin assays). After a 30-minute incubation at 37° C., the plates were washed 3 times with the respective binding buffer (except without the serum), the adherent cells were lysed, and fluorescence was measured on a Tecan Safire^2 plate reader. Standard curves were run for each assay to convert fluorescence units to cell number. For each assay, the cells expressed the appropriate integrin receptor either endogenously (Jurkat/α4β1, K562/α5β1, Jurkat (a4-)/αLβ2, HSB/αLβ2) or in recombinant form (K562/α4β7). Generation of the recombinant K562 cell line has been described.

[2] = biological target: T2, α4β1 (VLA-4) (Homo sapiens, UniProt P05556+P13612); experiment: Static cell adhesion assay, α4β1-mediated adhesion to VCAM-1; type: cell-based; details: Jurkat cells on sub-optimal VCAM-1 coating; PBS, 1 mM MgCl2, 50% FBS; read-out: Activity (EC50) in enhancing adhesion mediated by α4β1 (VLA-4)
T2 construct: the cells expressed the appropriate integrin receptor either endogenously (Jurkat/α4β1, K562/α5β1, Jurkat (a4-)/αLβ2, HSB/αLβ2); host or cells: Jurkat
Method: as §1, §2

[3] = system: Jurkat cells; experiment: SDF-1α mediated migration assay across VCAM-1 coated membranes; type: cell-based; details: 4-hour incubation; *p<0.05 (FIG. 3A&B)
Method: (§3) FIGS. 3A&B depicts activity of C4 in enhancing SDF-1α mediated migration of Jurkat T cell, an exemplary activated T-cell, across membranes coated with either VCAM-1 or ICAM-1 (*p<0.05).
(§4) Migration assays were performed in […] pore size Transwells (24 well, Costar, Cambridge, Mass.). The upper chambers were pre-coated with […] VCAM-1 or 1 μg/mL ICAM-1 in […] TBS overnight at 4° C. and were then blocked with 2% BSA for 1 hour at room temperature. After washing with migration medium (RPMI-1640 supplemented with 1% FBS, 100 units/mL penicillin and 100 μg/mL streptomycin), upper chambers were loaded with 2×10^5 cells Jurkat cells (VCAM-1 assays) or Jurkat (a4-) cells (ICAM-1 assays) in 160 μL of migration medium. Lower chambers contained 600 μL of migration medium supplemented with 5 µg/mL (VCAM-1 assays) or 1 μg/mL (ICAM-1 assays) SDF-1α to induce chemotaxis. Jurkat cells were mixed with vehicle (1% DMSO) or C4 at the indicated concentrations immediately prior to being added to the upper chamber. After a 4-hour incubation at 37° C., 5% CO2, the upper chambers were removed, and cells in the lower chamber were collected and counted on a hemocytometer. Results are expressed as the total number of cells migrated.

[4] = system: B16-BL6 melanoma; experiment: Checkpoint blockade B16-BL6 melanoma model; type: in vivo, C57BL/6 mice; details: C4 intratumorally 1 mg/kg twice weekly for 30 days from day 11
Method: C4 was tested in a B16-BL6 melanoma model to determine potential effects on the current checkpoint blockade therapy anti-CTLA-4. Briefly, thirty C57BL/6 were randomized into 3 groups (n=10). C4 was added to a regimen of GVAX®/anti-CTLA-4. Historically, these treatment regimens result in at best, a 20% tumor free survival. On day 0, B16-BL6 cells (2.5×10^4) were injected subcutaneously. GVAX®/anti-CTLA-4 (clone 9H10), or IgG controls, were administered on days 3, 6, and 9. On day 11, C4 treatment was initiated intratumorally twice weekly (1 mg/kg) for 30 days. Vehicle control was added to the IgG group.
The B16-BL6 therapeutic melanoma model is well described. Briefly, B16-BL6 cells (>90% viability) were be resuspended at 2.5×10^5 cells/ml in HBSS (4° C.). At day 0 (d0), C57BL/6 mice (4-6 wk old, female) were inoculated (subcutaneous, flank) with 2.5×10^4 cells (100 μL). At d3, appropriate groups received B16-GM-CSF vaccine (GVAX®). GVAX® preparation followed established procedures. Log-phase growth B16-GM-CSF cells were harvested as described above for B16-BL6 cells, but resuspended at 1×10^7 cells in HBSS (4° C.). Cells were irradiated (5000 rad) and injected into contralateral flanks (100 μL, […]). Also at d3, all animals received anti-CTLA-4 (mAb 9H10, BioXcell, 200 μg/animal, twice weekly). […] Animals were monitored daily for distress and survival was assessed twice daily. […]

[5] = system: K562 tumor target cells; experiment: NK cytotoxicity testing (NK cell cytolysis of tumor target cells); type: cell-based, human
Method: FIG. 1 depicts C4 enhancement of natural killer cell cytolysis of tumor target cells. Freshly isolated CD56+ natural killer cells were isolated from the peripheral blood of a healthy volunteer. Cells were either incubated with vehicle control (DMSO), or indicated concentrations of C4 for 4 h in the presence of tumor target cells (the erythroleukemic cell line K562). Data is presented as a percent increase in tumor cell killing.
FIG. 2 depicts the natural killer cell line NK-92, which was used at different effector to target ratios in the presence or absence of C4 (100 μM). Specific lysis of K562 cells is shown. All data are from triplicate determinations, and graphed as the mean+SD. […]
Human NK cells were purified from leukoreduction filters obtained from healthy volunteers using a CD56+ magnetic bead based enrichment column from Multenyi Biotech (as per manufacturer's instructions). Purified cells were routinely >90% CD56+ positive as measured by flow cytometry. […] After a 4 h incubation at 37° C., 5% CO2, culture supernatants were removed and liberated TDA (2,2′:6′,2″-terpyridine-6,6″-dicarboxylic acid) was detected by addition of DELFIA solution to form EuTDA, and fluorescence was measured on a Tecan Safire 2 multimodal plate reader. […] Results are expressed as the percent specific lysis, calculated as [(experimental signal−spontaneous release)/(total signal−spontaneous release).

[6] = system: Jurkat (a4-) cells; experiment: SDF-1α mediated migration assay across ICAM-1 coated membranes; type: cell-based; details: 4-hour incubation, *p<0.05 (FIG. 3A&B)
Method: as §3, §4

T2 sequence (P13612 34-1032): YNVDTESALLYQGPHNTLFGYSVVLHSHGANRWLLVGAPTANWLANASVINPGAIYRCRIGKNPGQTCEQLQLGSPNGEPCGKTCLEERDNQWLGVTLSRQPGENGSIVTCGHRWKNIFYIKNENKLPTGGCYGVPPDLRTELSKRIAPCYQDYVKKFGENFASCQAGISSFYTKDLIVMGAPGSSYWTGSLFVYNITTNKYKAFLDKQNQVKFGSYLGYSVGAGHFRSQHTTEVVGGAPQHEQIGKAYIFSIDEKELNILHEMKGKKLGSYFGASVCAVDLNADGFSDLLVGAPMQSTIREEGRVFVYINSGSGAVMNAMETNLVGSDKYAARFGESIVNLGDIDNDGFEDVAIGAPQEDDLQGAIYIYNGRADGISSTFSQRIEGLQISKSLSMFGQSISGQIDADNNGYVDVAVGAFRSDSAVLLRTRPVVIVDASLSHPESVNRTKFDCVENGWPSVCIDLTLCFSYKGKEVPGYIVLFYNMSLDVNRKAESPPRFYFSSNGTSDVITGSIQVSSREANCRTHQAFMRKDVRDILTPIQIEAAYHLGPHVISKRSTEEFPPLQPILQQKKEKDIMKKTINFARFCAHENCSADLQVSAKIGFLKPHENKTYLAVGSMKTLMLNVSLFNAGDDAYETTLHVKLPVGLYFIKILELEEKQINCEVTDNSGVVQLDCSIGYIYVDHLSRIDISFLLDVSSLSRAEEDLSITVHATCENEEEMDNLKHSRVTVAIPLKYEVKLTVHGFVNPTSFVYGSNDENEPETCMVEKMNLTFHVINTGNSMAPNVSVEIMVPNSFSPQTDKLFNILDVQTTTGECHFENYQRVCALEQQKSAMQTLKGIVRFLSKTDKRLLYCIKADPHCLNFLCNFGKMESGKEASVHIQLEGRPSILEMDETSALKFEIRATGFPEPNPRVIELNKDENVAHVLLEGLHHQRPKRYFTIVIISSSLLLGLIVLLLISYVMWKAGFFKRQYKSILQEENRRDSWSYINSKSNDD
T2 sequence (P05556 21-798): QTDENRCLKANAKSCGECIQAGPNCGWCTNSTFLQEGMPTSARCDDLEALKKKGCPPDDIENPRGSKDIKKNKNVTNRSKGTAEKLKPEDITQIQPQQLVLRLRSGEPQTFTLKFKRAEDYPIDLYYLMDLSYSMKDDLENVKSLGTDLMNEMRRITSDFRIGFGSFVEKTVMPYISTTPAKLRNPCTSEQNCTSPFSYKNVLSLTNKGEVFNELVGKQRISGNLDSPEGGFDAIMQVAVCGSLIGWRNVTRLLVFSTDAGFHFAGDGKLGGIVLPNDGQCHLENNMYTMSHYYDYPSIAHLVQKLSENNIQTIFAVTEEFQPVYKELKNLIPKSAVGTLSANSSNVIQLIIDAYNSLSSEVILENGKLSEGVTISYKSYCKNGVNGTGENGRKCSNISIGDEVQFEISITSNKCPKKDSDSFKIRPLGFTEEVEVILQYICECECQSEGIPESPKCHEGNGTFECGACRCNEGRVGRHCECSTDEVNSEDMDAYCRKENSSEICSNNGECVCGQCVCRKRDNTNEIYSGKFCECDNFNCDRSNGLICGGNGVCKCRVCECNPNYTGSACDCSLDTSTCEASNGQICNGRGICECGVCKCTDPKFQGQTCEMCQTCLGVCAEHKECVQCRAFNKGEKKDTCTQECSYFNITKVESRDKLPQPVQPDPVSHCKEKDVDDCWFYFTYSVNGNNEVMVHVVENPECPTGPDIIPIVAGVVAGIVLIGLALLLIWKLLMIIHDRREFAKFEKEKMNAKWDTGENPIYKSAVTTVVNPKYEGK
T1 sequence (P20701 26-1170): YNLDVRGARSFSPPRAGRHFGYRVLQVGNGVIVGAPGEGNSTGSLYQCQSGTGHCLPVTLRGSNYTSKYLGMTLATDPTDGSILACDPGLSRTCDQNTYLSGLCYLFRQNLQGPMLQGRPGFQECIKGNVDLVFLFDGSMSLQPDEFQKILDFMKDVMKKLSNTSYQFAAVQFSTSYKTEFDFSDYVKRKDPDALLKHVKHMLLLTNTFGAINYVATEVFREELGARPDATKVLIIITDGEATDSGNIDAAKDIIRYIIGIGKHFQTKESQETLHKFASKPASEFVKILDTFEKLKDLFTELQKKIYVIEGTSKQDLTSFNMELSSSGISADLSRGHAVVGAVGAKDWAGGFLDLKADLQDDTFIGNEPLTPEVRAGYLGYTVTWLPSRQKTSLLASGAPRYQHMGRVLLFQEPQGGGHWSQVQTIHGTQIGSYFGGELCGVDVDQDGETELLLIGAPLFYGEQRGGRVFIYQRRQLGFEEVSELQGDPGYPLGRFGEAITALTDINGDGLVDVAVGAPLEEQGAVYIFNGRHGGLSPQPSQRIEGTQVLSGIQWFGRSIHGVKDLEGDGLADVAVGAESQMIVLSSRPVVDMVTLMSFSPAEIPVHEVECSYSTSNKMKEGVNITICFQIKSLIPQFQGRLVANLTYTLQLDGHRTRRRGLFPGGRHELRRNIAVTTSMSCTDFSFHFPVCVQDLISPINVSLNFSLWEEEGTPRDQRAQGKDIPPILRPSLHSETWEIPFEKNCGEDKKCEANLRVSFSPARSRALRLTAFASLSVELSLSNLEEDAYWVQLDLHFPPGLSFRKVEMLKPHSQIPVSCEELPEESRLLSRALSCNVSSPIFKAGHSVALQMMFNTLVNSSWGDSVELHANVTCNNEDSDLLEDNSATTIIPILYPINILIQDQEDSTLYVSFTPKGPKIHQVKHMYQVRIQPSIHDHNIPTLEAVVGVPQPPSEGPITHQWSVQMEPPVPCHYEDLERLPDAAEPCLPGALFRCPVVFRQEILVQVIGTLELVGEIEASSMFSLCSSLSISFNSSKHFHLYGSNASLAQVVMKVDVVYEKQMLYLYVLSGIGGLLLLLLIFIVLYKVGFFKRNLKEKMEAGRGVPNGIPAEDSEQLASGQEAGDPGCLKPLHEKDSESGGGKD
T1 sequence (P05107 23-769): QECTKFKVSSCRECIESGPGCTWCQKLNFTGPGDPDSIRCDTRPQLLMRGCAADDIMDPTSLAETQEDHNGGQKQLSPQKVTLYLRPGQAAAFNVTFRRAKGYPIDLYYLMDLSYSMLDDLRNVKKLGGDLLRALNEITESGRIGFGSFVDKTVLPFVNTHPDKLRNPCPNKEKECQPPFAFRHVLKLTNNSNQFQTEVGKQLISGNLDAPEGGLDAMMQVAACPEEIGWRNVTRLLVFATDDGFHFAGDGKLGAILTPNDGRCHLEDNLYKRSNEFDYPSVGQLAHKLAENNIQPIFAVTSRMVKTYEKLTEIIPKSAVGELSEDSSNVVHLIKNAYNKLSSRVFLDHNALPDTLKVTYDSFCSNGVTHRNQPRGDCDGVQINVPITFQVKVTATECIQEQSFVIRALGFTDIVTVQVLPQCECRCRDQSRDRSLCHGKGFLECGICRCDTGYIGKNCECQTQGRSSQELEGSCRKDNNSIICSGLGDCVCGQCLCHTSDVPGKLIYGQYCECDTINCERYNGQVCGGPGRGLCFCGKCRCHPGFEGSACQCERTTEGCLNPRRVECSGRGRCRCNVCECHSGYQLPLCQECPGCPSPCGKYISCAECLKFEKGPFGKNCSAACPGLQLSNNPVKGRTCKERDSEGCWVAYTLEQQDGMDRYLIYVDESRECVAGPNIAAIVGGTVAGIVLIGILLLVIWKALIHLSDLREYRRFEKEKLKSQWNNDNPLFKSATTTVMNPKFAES

CCCC[C@@H](COC(=O)N(Cc1cccs1)Cc1cccs1)NC(=O)N[C@@H](CC(=O)OC)c1ccc2c(c1)OCO2 [Compound C1, (6S,10S)-methyl 10-(1,3-benzodioxol-5-yl)-6-butyl-3,8-dioxo-1-(2-thienyl)-2-(2-thienylmethyl)-4-oxa-2,7,9-triazadodecan-12-oate]
EC50 [1]: 26 µM | EC50 [2]: 32 µM

COc1ccc(CN(Cc2ccc(OC)cc2)C(=O)CCCCC(=O)N(Cc2ccc(OC)cc2)Cc2ccc(OC)cc2)cc1 [Compound C2, N^1,N^1,N^6,N^6-tetrakis(4-methoxybenzyl)adipamide]
EC50 [1]: 11 µM | EC50 [2]: 11 µM

COc1cccc(CN(Cc2cccc(OC)c2)C(=O)CCCCC(=O)N(Cc2cccc(OC)c2)Cc2cccc(OC)c2)c1 [Compound C3, N^1,N^1,N^6,N^6-tetrakis(3-methoxybenzyl)adipamide]
EC50 [1]: 7 µM | EC50 [2]: 11 µM

O=C(OCCOCCOCCOC(=O)N(Cc1cccs1)Cc1cccs1)N(Cc1cccs1)Cc1cccs1 [Compound C4, (ethane-1,2-diylbis(oxy))bis(ethane-2,1-diyl) bis(bis(thiophen-2-ylmethyl)carbamate)]
SDF-1α mediated migration of Jurkat T cells across VCAM-1 coated membranes [3]: enhancing | Long term tumor free survival on addition to GVAX/anti-CTLA-4 (in words) [4]: significant increase | Median survival benefit on addition to GVAX/anti-CTLA-4 (in words) [4]: significant median survival benefit | Killing (specific lysis) of K562 tumor target cells by NK-92 cell line ([5]; different effector to target ratios, C4 100 μM (FIG. 2)): enhanced | Killing of K562 tumor target cells by freshly isolated CD56+ NK cells ([5]; human NK cells from healthy volunteer, 4 h, with or without C4 (FIG. 1)): enhanced | SDF-1α mediated migration of Jurkat T cells across ICAM-1 coated membranes [6]: enhancing | EC50 [1]: 11 µM | EC50 [2]: 14 µM
